US10072014B2 (Janssen Pharmaceutica NV, priority 2014, dated 2018)

Key:
human mGlu2 receptor = biological target: T1, human mGlu2 receptor (Homo sapiens, UniProt Q14416); assay: [35S]GTPγS binding assay, negative allosteric modulation of mGluR2; format: biochemical; conditions: for Emax: maximal % inhibition relative to the control glutamate response (EC80 glutamate), read-out: GTPγS-hmGluR2 anGT Emax; for IC50: membranes from CHO cells transfected with human mGlu2 receptor, glutamate 60 μM (~EC80), read-out: GTPγS-hmGluR2 anGT pIC50 (converted)
T1 construct: expressed in transfected cells; host or cells: CHO cells
T1 sequence (Q14416 19-872): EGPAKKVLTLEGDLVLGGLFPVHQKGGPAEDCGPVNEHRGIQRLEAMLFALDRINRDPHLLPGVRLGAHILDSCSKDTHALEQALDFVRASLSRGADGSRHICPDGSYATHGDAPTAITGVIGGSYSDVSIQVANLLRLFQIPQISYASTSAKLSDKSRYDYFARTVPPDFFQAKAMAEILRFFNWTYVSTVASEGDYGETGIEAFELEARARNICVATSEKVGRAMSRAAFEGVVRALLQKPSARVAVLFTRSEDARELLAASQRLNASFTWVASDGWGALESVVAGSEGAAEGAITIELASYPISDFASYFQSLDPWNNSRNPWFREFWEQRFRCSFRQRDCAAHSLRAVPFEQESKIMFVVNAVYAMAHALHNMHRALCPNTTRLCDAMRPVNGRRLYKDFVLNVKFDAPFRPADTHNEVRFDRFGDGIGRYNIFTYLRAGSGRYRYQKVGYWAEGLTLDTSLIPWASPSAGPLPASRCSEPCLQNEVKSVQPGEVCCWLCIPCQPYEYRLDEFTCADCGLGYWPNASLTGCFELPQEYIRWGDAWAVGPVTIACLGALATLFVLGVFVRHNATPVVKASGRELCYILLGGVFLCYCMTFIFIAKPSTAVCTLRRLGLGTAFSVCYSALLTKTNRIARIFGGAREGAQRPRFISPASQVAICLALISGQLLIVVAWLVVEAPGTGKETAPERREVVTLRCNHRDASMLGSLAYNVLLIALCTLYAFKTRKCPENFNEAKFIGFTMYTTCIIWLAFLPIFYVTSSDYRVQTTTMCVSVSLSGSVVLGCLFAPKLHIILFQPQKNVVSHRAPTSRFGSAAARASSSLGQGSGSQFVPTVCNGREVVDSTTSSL
Description: The compounds provided in the present invention are negative allosteric modulators of mGluR2. These compounds appear to inhibit glutamate responses by binding to an allosteric site other than the glutamate binding site. The response of mGluR2 to a concentration of glutamate is decreased when compounds of Formula (I) are present. Compounds of Formula (I) are expected to have their effect substantially at mGluR2 by virtue of their ability to reduce the function of the receptor. The effects of negative allosteric modulators tested at mGluR2 using the [^35S]GTPγS binding assay method described below and which is suitable for the identification of such compounds, and more particularly the compounds according to Formula (I), are shown in Table 7.
1) [^35S]GTPγS Binding Assay
The [^35S]GTPγS binding assay is a functional membrane-based assay used to study G-protein coupled receptor (GPCR) function whereby incorporation of a non-hydrolysable form of GTP, [^35S]GTPγS (guanosine 5′-triphosphate, labelled with […] ^35S), is measured. The G-protein a subunit catalyzes the exchange of guanosine 5′-diphosphate (GDP) by guanosine triphosphate (GTP) and on activation of the GPCR by an agonist, [^35S]GTPγS, becomes incorporated and cannot be cleaved to continue the exchange cycle (Harper (1998) Current Protocols in Pharmacology 2.6.1-10, John Wiley & Sons, Inc.). […] Here we describe the use of the [^35S]GTPγS binding assay using membranes from cells transfected with the human mGlu2 receptor and adapted from Schaffhauser et al. (Molecular Pharmacology, 2003, […]) for the detection of the negative allosteric modulation (NAM) properties of the compounds of this invention.
CHO-cells were cultured to pre-confluence and stimulated with 5 mM butyrate for 24 h. Cells were then collected by scraping in PBS and cell suspension was centrifuged (10 min at 4000 RPM in benchtop centrifuge). Supernatant was discarded and pellet gently resuspended in 50 mM Tris-HCl, pH 7.4 by mixing with an Ultra Turrax homogenizer. The suspension was centrifuged at 12,400 RPM (Sorvall F14S-6x250Y) for 10 minutes and the supernatant discarded. The pellet was homogenized in 5 mM Tris-HCl, pH 7.4 using an Ultra Turrax homogenizer and centrifuged again (13,000 RPM, 20 min, 4° C.). The final pellet was resuspended in 50 mM Tris-HCl, pH 7.4 and stored at −80° C. in appropriate aliquots before use. Protein concentration was determined by the Bradford method (Bio-Rad, USA) with bovine serum albumin as standard.
[^35S]GTPγS Binding Assay
Measurement of mGluR2 negative allosteric modulatory activity of test compounds was performed as follows. Test compounds and glutamate were diluted in assay buffer containing 10 mM HEPES acid, 10 mM HEPES salt, pH 7.4, 100 mM NaCl, 3 mM MgCl2 and 10 μM GDP. Human mGlu2 receptor-containing membranes were thawed on ice and diluted in assay buffer supplemented with 18 μg/ml saponin. Membranes were pre-incubated with compound together with a predefined (˜EC80) concentration of glutamate (60 μM) for 30 min at 30° C. After addition of [^35S]GTPγS (f.c. 0.1 nM), assay mixtures were shaken briefly and further incubated to allow [^35S]GTPγS incorporation on activation (30 minutes, 30° C.). Final assay mixtures contained 7 μg of membrane protein in 10 mM HEPES acid, 10 mM HEPES salt, pH 7.4, 100 mM NaCl, 3 mM MgCl2, 10 μM GDP and 10 μg/ml saponin. Total reaction volume was 200 μl. Reactions were terminated by rapid filtration through Unifilter-96 GF/B plates (Perkin Elmer, Massachusetts, USA) using a 96-well filtermate universal harvester. Filters were washed 6 times with ice-cold 10 mM NaH2PO4/10 mM Na2HPO4, pH 7.4. Filters were then air-dried, and 30 μl of liquid scintillation cocktail (Microscint-O) was added to each well. Membrane-bound radioactivity was counted in a Topcount.
The concentration-response curves of representative compounds of the present invention were generated using the Lexis software interface (developed at J&J). […]

rats = assay: Reversal of the effect of the mGluR2 PAM JNJ-42153605-induced inhibition of scopolamine-induced hyperlocomotion; format: in vivo; conditions: Rattus norvegicus, PO, criterion for reversal: total distance >1500 cm, read-out: ED50 SCOP JNJ-42153605
Method: 2) Reversal of the Effect of the mGluR2 PAM JNJ-42153605-induced Inhibition of Scopolamine-induced Hyperlocomotion Apparatus
Motor activity was measured in microprocessor-based motor activity arenas (closed gray PVC cylinders with a height of 39 cm and a diameter of 31 cm). Each arena was placed on an infrared LED (8×8 LEDs) lit box (white PVC squared box; 40×40 cm^2; height 12.5 cm. An infrared-sensitive tube camera and a white light source were mounted to the ceiling above the observation chamber to track the animal. The total distance traveled (cm) was recorded and analyzed using the Noldus Ethovision XT Video Tracking System (Version 7.0.418; Noldus, Wageningen, The Netherlands). The intensity of the light within the activity cages (measured in the centre at the level of the floor) ranged between 4 and 8 LUX.
The rats were pretreated with test compound or vehicle at 60 min before the start of the activity recordings and placed into individual cages. The rats were challenged with JNJ-42153605 (3-(cyclopropylmethyl)-7-(4-phenylpiperidin-1-yl)-8-(trifluoromethyl)-[1,2,4]triazolo[4,3-a]pyridine; WO2010/130424; Cid et al. J. Med. Chem. 2012, 55, 8770-8789) (20 mg/kg, i.v.) 30 min before the start of the activity recording combined with scopolamine (0.16 mg/kg, i.v.) just before the start of the activity measurements. Immediately after the injection of scopolamine, the rats were placed into the activity monitors and total distance traveled over the first 30 min was measured.
Solvent-pretreated Control Rats.
Animals receiving the combination of JNJ-42153605 and scopolamine (n=433) almost always traveled a distance of less than 1500 cm (<1500 cm) (only 2.5% of the control rats traveled a distance of more than 1500 cm (>1500 cm)). On the other hand, animals challenged with scopolamine alone (n=215) always traveled a total distance of more than 1500 cm (>1500 cm) and almost always (in 95.8% of the rats) a distance of more than 4400 cm (>4400 cm). […] For reversal of the inhibitory effect of JNJ-42153605 on the scopolamine-induced hyperlocomotion, the following all-or-none criteria were adopted: (1) reversal: total distance>1500 cm.

SMILES | melting point | Emax (human mGlu2 receptor) | IC50 (human mGlu2 receptor) | ED50 (rats)
C[C@H]1CN(c2ccc(C(F)(F)F)cc2)C(=O)c2c(-c3cnc[nH]3)cnn21 [Compound 12] | 176.92 °C | 101% | 70.8 nM | 
C[C@H]1CN(c2ccc(C(F)(F)F)cc2)C(=O)c2c(-c3nc[nH]c3Br)cnn21 [Compound 1] | 228.68 °C | 99.3% | 11.5 nM | 
C[C@H]1CN(c2ccc(C(F)(F)F)cc2)C(=O)c2c(-c3c[nH]c(C4CC4)n3)cnn21 [Compound 2] |  | 103% | 20 nM | 
COCc1ncc(-c2cnn3c2C(=O)N(c2ccc(C(F)(F)F)cc2)C[C@@H]3C)[nH]1 [Compound 13] |  | 104% | 83.2 nM | 
C[C@H]1CN(c2ccc(C(F)(F)F)cc2)C(=O)c2c(-c3c[nH]c(-c4ccccc4)n3)cnn21 [Compound 5] | 119.88 °C | 105% | 27.5 nM | 
C[C@H]1CN(c2ccc(C(F)(F)F)cc2)C(=O)c2c(-c3cnc(C#N)[nH]3)cnn21 [Compound 10] | 219.19 °C | 107% | 36.3 nM | 
Cc1[nH]c(-c2cccnc2)nc1-c1cnn2c1C(=O)N(c1ccc(C(F)(F)F)cc1)C[C@@H]2C [Compound 14] | 244.74 °C | 103% | 110 nM | 
Cc1nc(C2CC2)[nH]c1-c1cnn2c1C(=O)N(c1ccc(C(F)(F)F)cc1)C[C@@H]2C [Compound 7] |  | 106% | 31.6 nM | > 0.63 mg/kg
CC(C)c1nc(-c2cnn3c2C(=O)N(c2ccc(C(F)(F)F)cc2)C[C@@H]3C)c[nH]1 [Compound 6] | 156.03 °C | 104% | 30.9 nM | 
C[C@H]1CN(c2ccc(C(F)(F)F)cc2)C(=O)c2c(-c3nc(-c4ccc(N)nc4)[nH]c3Cl)cnn21 [Compound 3] |  | 108% | 25.1 nM | 
C[C@H]1CN(c2ccc(C(F)(F)F)cc2)C(=O)c2c(-c3nc(-c4ccc(N)nc4)[nH]c3Br)cnn21 [Compound 9] |  | 108% | 34.7 nM | 
CNc1ncc(-c2cnn3c2C(=O)N(c2ccc(C(F)(F)F)cc2)C[C@@H]3C)[nH]1 [Compound 15] | 205 °C | 102% | 170 nM | 
C[C@H]1CN(c2ccc(C(F)(F)F)cc2)C(=O)c2c(-c3cnc(C(F)(F)F)[nH]3)cnn21 [Compound 8] |  | 108% | 33.1 nM | 

Further lines, with some results ahead:

melting point | Emax (human mGlu2 receptor) | IC50 (human mGlu2 receptor) | SMILES | ED50 (rats)
198.73 °C | 106% | 145 nM | Cc1[nH]c(-c2ccccn2)nc1-c1cnn2c1C(=O)N(c1ccc(C(F)(F)F)cc1)C[C@@H]2C [Compound 17] | 
 | 103% | 38.9 nM | C[C@H]1CN(c2ccc(C(F)(F)F)cc2)C(=O)c2c(-c3c[nH]c(-c4cnccn4)n3)cnn21 [Compound 44] | 
226.81 °C | 104% | 64.6 nM | Cc1nc(-c2cnn3c2C(=O)N(c2ccc(C(F)(F)F)c(C#N)c2)C[C@@H]3C)c[nH]1 [Compound 23] | 
 | 111% | 38 nM | CNC(=O)c1nc(-c2cnn3c2C(=O)N(c2ccc(C(F)(F)F)c(Cl)c2)C[C@@H]3C)c[nH]1 [Compound 35] | 
 | 107% | 6.92 nM | C[C@H]1CN(c2ccc(C(F)(F)F)cc2)C(=O)c2c(-c3cnc(C4CCC4)[nH]3)cnn21 [Compound 40] | 
 | 111% | 3.89 nM | C[C@H]1CN(c2ccc(C(F)(F)F)c(Cl)c2)C(=O)c2c(-c3c[nH]c(C#N)n3)cnn21 [Compound 29] | 
227.75 °C | 106% | 4.9 nM | C[C@H]1CN(c2ccc(C(F)(F)F)c(Cl)c2)C(=O)c2c(-c3c[nH]c(-c4cnccn4)n3)cnn21 [Compound 43] | 
188.06 °C | 109% | 12.9 nM | C[C@H]1CN(c2ccc(C(F)(F)F)c(Cl)c2)C(=O)c2c(-c3c[nH]c(-c4cccnc4)n3)cnn21 [Compound 37] | 
174.28 °C | 106% | 15.8 nM | Cc1ncc(-c2cnn3c2C(=O)N(c2ccc(C(F)(F)F)c(CF)c2)C[C@@H]3C)[nH]1 [Compound 24] | 
 | 108% | 50.1 nM | C[C@H]1CN(c2ccc(Cl)c(Cl)c2)C(=O)c2c(-c3c[nH]c(-c4ccc(N)nc4)n3)cnn21 [Compound 19] | 
 | 104% | 8.32 nM | C[C@H]1CN(c2ccc(C(F)(F)F)c(Cl)c2)C(=O)c2c(-c3c[nH]c(-c4ccccn4)n3)cnn21 [Compound 39] | 
173.18 °C | 109% | 1.86 nM | C[C@H]1CN(c2ccc(C(F)(F)F)c(Cl)c2)C(=O)c2c(-c3c[nH]c(C4CCC4)n3)cnn21 [Compound 42] | 
 | 106% | 110 nM | C[C@H]1CN(c2ccc(C(F)(F)F)c(Cl)c2)C(=O)c2c(-c3c[nH]c(C(=O)N(C)C)n3)cnn21 [Compound 36] | 
275.27 °C | 107% | 53.7 nM | Cc1cc(N2C[C@H](C)n3ncc(-c4c[nH]c(-c5ccc(N)nc5)n4)c3C2=O)ccc1C(F)(F)F [Compound 20] | 
232.11 °C | 105% | 21.4 nM | Cc1[nH]c(-c2ccccn2)nc1-c1cnn2c1C(=O)N(c1ccc(C(F)(F)F)c(Cl)c1)C[C@@H]2C [Compound 38] | 
 | 106% | 166 nM | Cc1cc(-c2ncc(-c3cnn4c3C(=O)N(c3ccc(C(F)(F)F)cc3)C[C@@H]4C)[nH]2)ccn1 [Compound 41] | 
 | 106% | 34.7 nM | C[C@H]1CN(c2ccc(C(F)(F)F)c(Cl)c2)C(=O)c2c(-c3nc(-c4ccc(N)nc4)[nH]c3C#N)cnn21 [Compound 45] | 
